Measured values reported in ChEMBL document CHEMBL3112517, “Identification of dihydrostilbenes in Pholidota chinensis as a new scaffold for GABAA receptor modulators” (Bioorg Med Chem, 2014).

What was measured:
[1] = molecular target: T1, GABA A receptor alpha-3/beta-2/gamma-2 (Homo sapiens, UniProt P18507+P34903+P47870); assay: Modulation of GABAA alpha3beta2gamma2S receptor (unknown origin) expressed in Xenopus laevis oocytes assessed as potentiation of EC3 to 10 GABA-induced chloride ion current at holding potential -70 mV by two-microelectrode voltage clamp assay; assay type: cell-based
T1 sequence (P47870 whole entry): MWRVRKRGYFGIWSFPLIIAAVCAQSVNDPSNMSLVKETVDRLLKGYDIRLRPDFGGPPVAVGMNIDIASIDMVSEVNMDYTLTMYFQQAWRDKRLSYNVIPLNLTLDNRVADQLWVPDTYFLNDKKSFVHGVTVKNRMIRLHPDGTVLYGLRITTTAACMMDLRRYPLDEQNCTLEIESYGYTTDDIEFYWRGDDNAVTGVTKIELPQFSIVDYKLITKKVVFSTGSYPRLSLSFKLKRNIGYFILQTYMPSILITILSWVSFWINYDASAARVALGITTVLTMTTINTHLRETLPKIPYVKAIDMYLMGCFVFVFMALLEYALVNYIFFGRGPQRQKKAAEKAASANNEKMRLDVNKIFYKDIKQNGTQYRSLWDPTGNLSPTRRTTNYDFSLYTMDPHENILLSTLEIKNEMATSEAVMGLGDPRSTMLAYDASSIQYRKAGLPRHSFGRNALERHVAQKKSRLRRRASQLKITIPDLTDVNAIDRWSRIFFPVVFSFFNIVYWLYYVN
T1 sequence (P18507 whole entry): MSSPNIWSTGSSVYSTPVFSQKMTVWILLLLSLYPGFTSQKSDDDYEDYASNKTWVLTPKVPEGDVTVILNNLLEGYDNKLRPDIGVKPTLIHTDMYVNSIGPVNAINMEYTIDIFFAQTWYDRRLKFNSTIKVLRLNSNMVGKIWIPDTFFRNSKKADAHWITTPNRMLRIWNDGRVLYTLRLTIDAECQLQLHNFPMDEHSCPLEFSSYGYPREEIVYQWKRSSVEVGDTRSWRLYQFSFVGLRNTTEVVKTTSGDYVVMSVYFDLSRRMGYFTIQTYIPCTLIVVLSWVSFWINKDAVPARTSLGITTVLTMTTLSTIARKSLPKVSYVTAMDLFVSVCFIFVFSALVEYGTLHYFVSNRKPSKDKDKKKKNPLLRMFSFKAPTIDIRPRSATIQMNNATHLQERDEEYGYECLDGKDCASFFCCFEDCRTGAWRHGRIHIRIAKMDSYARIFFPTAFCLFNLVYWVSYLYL
T1 sequence (P34903 whole entry): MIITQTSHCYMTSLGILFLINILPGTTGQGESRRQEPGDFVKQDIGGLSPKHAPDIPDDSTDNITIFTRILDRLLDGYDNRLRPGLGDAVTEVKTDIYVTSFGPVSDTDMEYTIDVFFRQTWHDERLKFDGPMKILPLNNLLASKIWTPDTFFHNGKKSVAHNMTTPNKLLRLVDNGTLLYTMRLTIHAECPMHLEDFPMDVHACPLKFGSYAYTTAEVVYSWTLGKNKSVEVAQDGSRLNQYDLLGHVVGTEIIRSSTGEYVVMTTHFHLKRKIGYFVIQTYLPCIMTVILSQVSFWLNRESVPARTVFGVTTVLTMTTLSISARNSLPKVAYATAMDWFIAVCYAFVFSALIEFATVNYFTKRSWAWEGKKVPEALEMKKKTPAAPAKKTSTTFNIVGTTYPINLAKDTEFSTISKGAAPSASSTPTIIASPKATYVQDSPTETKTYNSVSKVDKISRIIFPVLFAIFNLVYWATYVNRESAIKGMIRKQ

Homo sapiens = organism: Homo sapiens; assay: Modulation of GABAA alpha1beta1gamma2S receptor (unknown origin) expressed in Xenopus laevis oocytes assessed as potentiation of EC3 to 10 GABA-induced chloride ion current at holding potential -70 mV at 1 to 300 uM by two-microelectrode voltage clamp assay relative to GABA-treated control; assay type: cell-based
[2] = molecular target: GABA A receptor alpha-2/beta-2/gamma-2 (Homo sapiens) (UniProt P47870+P18507+P47869); assay: Modulation of GABAA alpha2beta2gamma2S receptor (unknown origin) expressed in Xenopus laevis oocytes assessed as potentiation of EC3 to 10 GABA-induced chloride ion current at holding potential -70 mV at 1 to 300 uM by two-microelectrode voltage clamp assay relative to GABA-treated control; assay type: cell-based
[3] = Modulation of GABAA alpha4beta2gamma2S receptor (unknown origin) expressed in Xenopus laevis oocytes assessed as potentiation of EC3 to 10 GABA-induced chloride ion current at holding potential -70 mV by two-microelectrode voltage clamp assay; assay type: cell-based; conditions: Homo sapiens
[4] = molecular target: T2, GABA-A receptor; alpha-1/beta-3/gamma-2 (Homo sapiens, UniProt P14867+P18507+P28472); assay: Modulation of GABAA alpha1beta3gamma2S receptor (unknown origin) expressed in Xenopus laevis oocytes assessed as potentiation of EC3 to 10 GABA-induced chloride ion current at holding potential -70 mV by two-microelectrode voltage clamp assay; assay type: cell-based
T2 sequence (P14867 whole entry): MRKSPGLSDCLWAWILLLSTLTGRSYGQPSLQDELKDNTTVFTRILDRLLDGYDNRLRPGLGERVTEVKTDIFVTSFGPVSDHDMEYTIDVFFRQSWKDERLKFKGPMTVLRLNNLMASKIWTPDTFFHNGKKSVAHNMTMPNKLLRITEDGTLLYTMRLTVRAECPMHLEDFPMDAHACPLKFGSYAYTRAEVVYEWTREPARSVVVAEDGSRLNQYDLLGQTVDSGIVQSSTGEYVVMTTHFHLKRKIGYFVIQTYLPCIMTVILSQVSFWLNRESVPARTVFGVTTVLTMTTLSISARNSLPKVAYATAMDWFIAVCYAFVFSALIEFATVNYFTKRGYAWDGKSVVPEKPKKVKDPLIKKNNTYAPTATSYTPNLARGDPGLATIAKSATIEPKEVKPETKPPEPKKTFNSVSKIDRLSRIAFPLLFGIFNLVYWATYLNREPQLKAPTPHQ
T2 sequence (P18507 whole entry): T1 sequence (P18507 whole entry)
T2 sequence (P28472 whole entry): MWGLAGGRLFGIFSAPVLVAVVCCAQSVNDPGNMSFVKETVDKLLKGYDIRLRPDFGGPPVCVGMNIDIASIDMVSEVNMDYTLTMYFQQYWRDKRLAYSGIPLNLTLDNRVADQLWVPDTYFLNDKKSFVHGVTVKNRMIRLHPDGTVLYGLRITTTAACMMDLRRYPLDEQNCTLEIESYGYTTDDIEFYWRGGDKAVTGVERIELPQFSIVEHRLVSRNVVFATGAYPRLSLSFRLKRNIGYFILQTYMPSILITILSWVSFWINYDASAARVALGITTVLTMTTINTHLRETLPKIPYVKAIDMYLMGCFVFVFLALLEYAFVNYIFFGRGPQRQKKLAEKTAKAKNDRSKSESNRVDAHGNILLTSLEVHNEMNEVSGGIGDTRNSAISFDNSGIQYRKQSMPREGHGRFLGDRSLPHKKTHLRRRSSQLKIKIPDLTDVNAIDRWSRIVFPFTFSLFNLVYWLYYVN

[5] = Potency index, ratio of compound activity for modulation of rat GABAA alpha1beta2gamma2S receptor assessed as EC3 to 10 GABA-induced chloride ion current to clotiazepam activity for modulation of GABAA alpha1beta2gamma2S receptor (unknown origin) assessed as potentiation of EC5 to 10 GABA-induced chloride ion current

## COc1cc(O)cc(CCc2cccc(O)c2)c1 [BATATASIN III]
[1]
  EC50: 67.3 µM
Homo sapiens
  Imax: 1250%
[2]
  Imax: 1030%
[3]
  EC50: 26.2 µM
[4]
  EC50: 67.2 µM
[5]
  Ratio: 4
